Results: patent publication US20250304549A1, “HYDROXYAMIDE DERIVATIVE AND USE THEREOF” (SICHUAN HUIYU PHARMACEUTICAL CO., LTD., priority 2022, published 2025)
Counter-ions that a name gives are not always drawn.

What was measured:
[1] = biological target: pan-HDAC; experiment: In vitro enzyme inhibition assay - HDAC (HDAC-Glo I/II), pan-HDAC; format: biochemical
In short: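 Inhibition was measured with the HDAC-Glo I/II luminescent assay, testing compound as an 8-point, 5-fold dilution series from a 1 mM DMSO stock. Luminescence (RLU) was normalized to no-inhibitor and no-enzyme controls, and IC50 was derived by four-parameter variable-slope fitting.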

[2] = tested on: NCI-H1417 cells; experiment: In vitro cell inhibition assay - H1417 cell proliferation (CellTiter-Glo); format: cell-based; conditions: Homo sapiens, NCI-H1417, H1417 small cell lung cancer cell proliferation
In short: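 Cells exposed to 8 compound concentrations (5-fold dilutions) in BEGM with 10% FBS for 7 days at 37° C., 5% CO2. Viable cells measured by CellTiter-Glo luminescence; inhibition versus no-inhibitor and no-cell controls, IC50 fitted.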

[3] = tested on: NCI-H69 cells; experiment: In vitro cell inhibition assay - NCI-H69 cell proliferation (CellTiter-Glo); format: cell-based; conditions: Homo sapiens, NCI-H69, H69 small cell lung cancer cell proliferation
In short: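 CellTiter-Glo luminescence measured viability after a 7-day, 37° C. exposure of NCI-H69 cells (1×10^3/well) to an 8-point, 5-fold dilution series in RPMI-640/20% FBS. Inhibition was normalised to untreated and cell-free wells and IC50 derived by curve fitting.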

[4] = biological target: HDAC8 (Homo sapiens (Human), UniProt Q9BY41); experiment: In vitro enzyme inhibition assay - HDAC (HDAC-Glo I/II), HDAC8; format: biochemical; conditions: read-out: HDAC IC50 (nM) HDAC 8
Sequence of HDAC8 (Q9BY41 whole entry): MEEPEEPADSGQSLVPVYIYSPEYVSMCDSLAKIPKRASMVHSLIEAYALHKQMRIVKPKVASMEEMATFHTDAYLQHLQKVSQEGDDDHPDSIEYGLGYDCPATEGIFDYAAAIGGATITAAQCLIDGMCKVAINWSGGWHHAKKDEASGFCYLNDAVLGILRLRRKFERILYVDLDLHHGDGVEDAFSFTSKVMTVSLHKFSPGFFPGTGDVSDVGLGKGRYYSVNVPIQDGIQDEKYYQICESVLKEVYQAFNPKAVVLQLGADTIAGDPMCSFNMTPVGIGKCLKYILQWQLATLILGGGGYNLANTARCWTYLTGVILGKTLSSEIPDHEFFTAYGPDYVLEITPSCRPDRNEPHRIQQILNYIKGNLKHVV
Procedure: 2. In Vitro Enzyme Inhibition Assay—HDAC
The effect of the compound on the enzymatic activity of pan-HDAC and two isoforms (HDAC1 and HDAC8) was examined using the HDAC-Glo I/II Assay and Screening System assay to assess the level of inhibition of HDAC protease activity and selectivity in each isoform. The proteins and detection reagents were from the HDAC-Glo™ I/II Assay and Screening System (Promega). A 1 mM stock solution of the compound was prepared in DMSO and diluted in a 5-fold gradient to create a series of 8 concentrations, and a specific volume of the highest concentration was diluted 25 times with HDAC Buffer to obtain 4× working solution of the compound. […] The 384-well plate was then read on a multifunctional microplate reader, with the Luminescence channel selected to record Luminescence values (RLU). The inhibition rate was calculated using the following formula: […]
Note: ‘Negative’ refers to the group without the inhibitor; ‘Blank’ refers to the group without the enzyme.
The IC50 value was calculated by fitting the inhibition rate by GraphPad Prism software, employing log (inhibitor) vs. response-Variable Slope (four parameters) model.

[5] = biological target: LSD1 (Homo sapiens (Human), UniProt O60341); experiment: In vitro enzyme inhibition assay - LSD1 (HTRF); format: biochemical

Structure (SMILES)	IC50 [1]	IC50 [2]	IC50 [3]	IC50 [4]	IC50 [5]
COc1ccc(-c2cnc(N3CCC(NCc4ccc(CCC(=O)NO)c(C#N)c4)CC3)c(C#N)c2-c2ccc(C#N)c(F)c2)cc1O [Example 193, 3-(2-Cyano-4-((1-(3-cyano-4-(4-cyano-3-fluorophenyl)-5-(3-hydroxy-4-methoxyphenyl)pyridin-2-yl)piperidin-4-yl)amino)methyl) phenyl)-N-hydroxypropanamide formate]	8.36 nM	12.6 nM	221 nM	297 nM	1.71 nM
CNc1ccc(-c2cnc(N3CCC(NCc4ccc(CCC(=O)NO)cn4)CC3)c(C#N)c2-c2ccc(C#N)c(F)c2)cc1O [Example 194, 3-(6-((1-(3-Cyano-4-(4-cyano-3-fluorophenyl)-5-(3-hydroxy-4-(methylamino)phenyl)pyridin-2-yl)piperidin-4-yl)amino)methyl) pyridin-3-yl)-N-hydroxypropanamide hydrochloride]	7.27 nM	119 nM	1030 nM	543 nM	1.09 nM
CNc1ccc(-c2cnc(N3CCC(NCc4cnc(/C=C/C(=O)NO)nc4)CC3)c(C#N)c2-c2ccc(C#N)c(F)c2)cc1O [Example 196, (E)-3-(5-(((1-(3-Cyano-4-(4-cyano-3-fluorophenyl)-5-(3-hydroxy-4-(methylamino)phenyl)pyridin-2-yl)piperidin-4-yl)amino)methyl)pyrimidin-2-yl)-N-hydroxyacrylamide hydrochloride]	5.69 nM	39.3 nM	83.3 nM	26.5 nM	6.68 nM
CC(C)(O)COc1ccc(-c2cnc(N3CCC(NCc4ccc(CCC(=O)NO)nc4)CC3)c(C#N)c2-c2ccc(C#N)c(F)c2)cc1O [Example 204, 3-(5-((((1-(3-Cyano-4-(4-cyano-3-fluorophenyl)-5-(3-hydroxy-4-(2-hydroxy-2-methylpropoxy)phenyl)pyridin-2-yl)piperidin-4-yl)amino)methyl)pyridin-2-yl)-N-hydroxypropanamide formate]	2.37 nM	5.14 nM	89.2 nM	26.2 nM	1.58 nM

Continued, values first:

IC50 [1]	IC50 [2]	IC50 [3]	IC50 [4]	IC50 [5]	Structure (SMILES)
11.9 nM	23.5 nM	85 nM	50.9 nM	10.2 nM	N#Cc1ccc(-c2c(-c3ccc(C(F)(F)F)c(O)c3)cnc(N3CCC(NCc4cnc(/C=C/C(=O)NO)nc4)CC3)c2C#N)cc1F [Example 186, (E)-3-(5-(((1-(3-Cyano-4-(4-cyano-3-fluorophenyl)-5-(3-hydroxy-4-(trifluoromethyl)phenyl)pyridin-2-yl)piperidin-4-yl)amino)methyl)pyrimidin-2-yl)-N-hydroxyacrylamide formate]
5.96 nM	7.33 nM	93.4 nM	336 nM	2.85 nM	N#Cc1ccc(-c2c(-c3ccc(C(F)(F)F)c(O)c3)cnc(N3CCC(NCc4ccc(CCC(=O)NO)cc4)CC3)c2C#N)cc1F [Example 190, 3-(4-((1-(3-Cyano-4-(4-cyano-3-fluorophenyl)-5-(3-hydroxy-4-(trifluoromethyl)phenyl)pyridin-2-yl)piperidin-4-yl)amino)methyl) phenyl)-N-hydroxypropanamide formate]
11.8 nM	52.4 nM	1670 nM	172 nM	4.12 nM	N#Cc1ccc(-c2c(-c3ccc(C(F)(F)F)c(O)c3)cnc(N3CCC(NCc4cnc(CCC(=O)NO)nc4)CC3)c2C#N)cc1F [Example 195, 3-(5-(1-(3-Cyano-4-(4-cyano-3-fluorophenyl)-5-(3-hydroxy-4-trifluoromethylphenyl)pyridin-2-yl)piperidin-4-ylamino)methyl) pyrimidin-2-yl)-N-hydroxypropanamide formate]
